Source: paper PMC8037406, “Symbiotic NCR Peptide Fragments Affect the Viability, Morphology and Biofilm Formation of Candida Species” (International Journal of Molecular Sciences, 2021)
Read-outs that look alike come from different tables or passages of the source. Where a SMILES comes first, the peptide text is derived from it.

How the values were obtained:
[1] = system: Candida parapsilosis CBS 604; assay: microbe, parasite or virus in culture; assay type: cell-based; settings: micro-dilution, YNB medium, 4 × 10^4 cell/mL, 48 h, 30 °C, OD 620 nm; MIC = growth inhibition ≥90%; peptides 25 to 1.56 µM, fluconazole 200 to 0.78 µM; three biological repeats in triplicates; also: key: -: no growth inhibition was observed
[2] = system: Candida cells; assay: Fungicide effect, spotting of treated cells on solid YPD medium; assay type: cell-based, Candida species; settings: 1.56–25 µM, 24 h treatment, dilutions spotted on solid YPD medium, 48 h, 30 °C
Procedure: To determine whether the inhibitory effect of the peptides is generated by fungistatic or fungicide action, the Candida cells were treated with the peptides in the same concentration range (1.56–25 µM) as in the growth inhibition assay. After 24 h 5 µL sample from the untreated control cells and from the peptide treated cells was added to 95 µL water and diluted further 10- and 100-fold. From each dilution, 5 µL was placed on solid medium and the growth of the control and peptide treated cells was compared after 48 h incubation at 30 °C. This assay confirmed that all the effective peptides, NCR335N1–19, NCR335N7–21, NCR335C1–33, NCR335C13–33, NCR335C17–33, NCR169C17–38, NCR169C17–38ox, NCR169C17–38W10,20/A provoked growth inhibition through fungicidal actions (Figure A2). The fungicide concentrations, required for the complete elimination of the Candida cells, were either equal to or twice higher than the minimum inhibitory concentrations presented in Table 2.
The same initial experimental setting was used to determine the fungicide effect of the peptides. Five µL samples were taken from the cultures after 24 h and were added to 95 µL sterile distilled water, and diluted to 10- and 100-fold (indicated as 10^4, 10^3 and 10^2 based on the cell number of the control culture in Figure A2). Five µL from each dilution were placed on solid YPD medium and the growth of the strains was detected after 48 h incubation at 30 °C.

[3] = system: C. albicans ATCC 10231; assay: Yeast-hypha morphology, bright-field microscopy; assay type: cell-based, Candida albicans; settings: 3.12 µM peptide, 48 h, 1/8AIM medium, sub-lethal concentration
Excerpt: (§1) As hyphae formation is an important virulence factor, we investigated how the broad range activity peptides, NCR335C17–33, NCR169C17–38 and NCR169C17–38ox affect the morphological switch of C. albicans ATCC 10231 and C. tropicalis between the hyphal and yeast growth forms at sub-lethal concentrations (Figure 1). […] However, not only the morphology changed, but the cell number also declined, particularly in the latter case.
(§2) To induce morphological change of C. albicans and C. tropicalis YNB medium was changed for eight-fold diluted AIM-V+AlbuMAX (BSA) medium (Gibco, Thermo Fisher Scientific, Dublin, Ireland) referred to as 1/8AIM in the text.
(§3) Bright-field microscopy. The morphology of C. albicans ATCC 10231 and C. tropicalis cells was examined after 48 h incubation with the selected peptides (NCR335C17–33 and NCR169C17–38) by Zeiss Axio Observer inverted microscope (Carl Zeiss AG, Jena, Germany). The concentration of the NCR335C17–33 was 1.56 and 3.12 µM, NCR169C17–38 1.56 or 3.12 µM while NCR169C17–38ox 0.78 or 3.12 µM, the initial cell concentration was set to 4 × 10^4 cell/mL. Cells cultivated without peptides were used as control.

[4] = system: C. tropicalis CBS 94; assay: Yeast-hypha morphology, bright-field microscopy; assay type: cell-based, Candida tropicalis; settings: 1.56 µM peptide, 48 h, 1/8AIM medium
Excerpt: as §1, §2, §3

[5] = system: C. albicans ATCC 10231 biofilm; assay: Biofilm formation assay, XTT; assay type: cell-based, Candida albicans; settings: 72 h, 37 °C, 5 % CO2, 1/8AIM medium, p ≤ 0.0001
[6] = system: C. albicans SC 5314 biofilm; assay: Biofilm formation assay, XTT; assay type: cell-based, Candida albicans; settings: 72 h, 37 °C, 5 % CO2, 1/8AIM medium, p ≤ 0.0001
[7] = system: C. albicans SZMC 1458 biofilm; assay: Biofilm formation assay, XTT; assay type: cell-based, Candida albicans; settings: 72 h, 37 °C, 5 % CO2, 1/8AIM medium, p ≤ 0.0001
[8] = system: C. tropicalis CBS 94 biofilm; assay: Biofilm formation assay, XTT; assay type: cell-based, Candida tropicalis; settings: 72 h, 37 °C, 5 % CO2, 1/8AIM medium, p ≤ 0.0001
[9] = system: C. albicans ATCC 10231 biofilm; assay: Morphology of biofilm-located cells, scanning electron microscopy; assay type: cell-based, Candida albicans; settings: SEM, 72 h, 37 °C, sub-lethal concentrations
[10] = system: C. tropicalis CBS 94 biofilm; assay: as above; assay type: cell-based, Candida tropicalis; settings: SEM, 72 h, 37 °C, 1.56 µM peptide
[11] = system: C. auris; settings: for reduction of MIC in the synergistic combination: compared with single use
Procedure: Amphotericin B, due to its high toxicity was not included in this assay.
The effects of the different combinations of fluconazole and NCR335C17–33, NCR169C17–38 or NCR169C17–38ox were determined by standard checkerboard titration method. The fluconazole was tested in a concentration range from 6.25 to 75 µM, NCR169C17–38 and NCR169C17–38ox from 0.78 to 12.50 µM, NCR335C17–33 from 1.56 to 25 µM. The initial cell concentration in each well was 4 × 10^4 cell/mL. After the incubation for 72 h at 30 °C, the optical density of the cultures was detected at 620 nm in SPECTROstar Nano plate reader (BMG LabTech, Offenburg, Germany). The inhibitory concentrations were determined for each compound alone and in combinations. The experiments were carried out at least three times. The effect of combinations was evaluated by fractional inhibitory concentration (FIC) index. FIC = FICA + FICB. FICA = (MICA in combination)/(MICA alone); FICB = (MICB in combination)/(MICB alone)

[12] = NCR169C17–38 + NCR169C17–38ox, C. auris
[13] = checkerboard, C. auris, 72 h, 30 °C, drug A fluconazole + drug B NCR169C17–38

CC[C@H](C)[C@H](NC(=O)[C@H](CCCCN)NC(=O)[C@H](Cc1ccccc1)NC(=O)[C@H](CC(C)C)NC(=O)[C@@H]1CCCN1C(=O)[C@H](CCCCN)NC(=O)[C@H](CCCCN)NC(=O)[C@H](CO)NC(=O)[C@@H](N)CCCCN)C(=O)N[C@@H](Cc1c[nH]c2ccccc12)C(=O)N[C@@H](CCCCN)C(=O)N[C@@H](CS)C(=O)N[C@H](C(=O)N[C@@H](CCC(=O)O)C(=O)N[C@@H](CC(N)=O)C(=O)N[C@H](C(=O)N[C@@H](CS)C(=O)N[C@H](C(=O)N[C@@H](CC(C)C)C(=O)N[C@@H](Cc1c[nH]c2ccccc12)C(=O)N[C@@H](Cc1ccc(O)cc1)C(=O)N[C@@H](CCCCN)C(N)=O)C(C)C)C(C)C)C(C)C [NCR169C17–38] (H-KSKKPLFKIWKCVENVCVLWYK-NH2; N-terminus assumed)
Minimal inhibitory concentration, Cp CBS 604 [1]: -
growth inhibition by fungistatic or fungicide action [2]: fungicidal
effect on hyphal growth [3]: completely inhibited the hyphal growth
effect on hyphal/yeast growth form [4]: shifted to the yeast form
concentration significantly inhibiting biofilm formation, relative to MIC [5]: half MIC
concentration significantly inhibiting biofilm formation, relative to MIC [6]: one-fourth of the MIC
concentration significantly inhibiting biofilm formation, relative to MIC [7]: MIC
concentration significantly inhibiting biofilm formation, relative to MIC [8]: half MIC
morphology of cells in the biofilm [9]: reduced the abundance of the hyphal form
morphology of cells in the biofilm [10]: the cell number was drastically reduced, and the yeast form was also dominant
Action [11, 12]: Synergism
reduction of MIC in the synergistic combination [11, 12]: 2 ×
reduction of MIC in the synergistic combination ([11]; NCR169C17–38 + NCR335C17–33 (3.12 μM), C. auris): 4 ×
Action ([11]; NCR169C17–38 + NCR335C17–33, C. auris): Synergism
concentration of drug A for the indicated action ([11]; checkerboard, C. auris, 72 h, 30 °C, drug A NCR169C17–38 + drug B NCR169C17–38ox): 3.12 µM
FICB [11, 13]: 0.125
concentration of drug B for the indicated action [11, 13]: 0.78 µM
Action ([11]; fluconazole + NCR169C17–38, C. auris): Additive
